pIC50: −log10 of the molar value. ≈ marks a conversion by molar mass, not a printed value. Where two headings read alike, the source gives them in different places. Blank lines part the entries; values can stand above or below the compound they belong to.
Assays:
[1] = test system: tumor vasculature; conditions: cited from earlier work
[2] = test system: purified tubulin; conditions: previously described compounds; cited from earlier work
[3] = cited from earlier work
[4] = test system: T1, purified tubulin; assay: Inhibition of tubulin polymerization assay; type: biochemical, bovine; conditions: for pIC50: read-out: IC50, in vitro inhibition of tubulin polymerization, purified bovine brain tubulin 1.5 mg/ml, 15 min preincubation at 37° C., GTP-induced, 350 nm
T1 construct: other: purified bovine brain tubulin 1.5 mg/ml, 15 min preincubati
Procedure: After the incubation period, the reaction was cooled and GTP was added to induce tubulin polymerization. Polymerization was then monitored in a Gilford spectrophotometer at 350 nm. The final reaction mixtures (0.25 ml) contained 1.5 mg/ml tubulin, 0.6 mg/ml microtubule-associated proteins (MAPs), 0.5 mM GTP, 0.5 mM MgCl2, 4% DMSO and 0.1M 4-morpholineethanesulfonate buffer (MES, pH 6.4).

[5] = test system: NCI 60 cell line panel; assay: NCI 60 cell line panel; type: cell-based; conditions: Homo sapiens
[6] = test system: human cancer cells; assay: Cytotoxicity against human cancer cells; type: cell-based
[7] = test system: SF-295; assay: Growth inhibition, human cancer cell line SF-295 (SRB); type: cell-based; conditions: CNS, 48 hours
Procedure: (§1) Several of the compounds described in this application were evaluated in terms of growth inhibitory activity against several human cancer cell lines, including pancreas, breast, CNS, lung-NSC, colon, and prostate lines. The assay used is described in Monks et al.^32 Briefly, the cell suspensions, diluted according to the particular cell type and the expected target cell density (5,000-40,000 cells per well based on cell growth characteristics), were added by pipet (100 μl) to 96-well microtiter plates. Inoculates were allowed a preincubation time of 24-28 hours at 37° C. for stabilization. Incubation with the inhibitor compounds lasted for 48 hours in 5% CO2 atmosphere and 100% humidity. Determination of cell growth was done by in situ fixation of cells, followed by staining with a protein-binding dye, sulforhodamine B (SRB), which binds to the basic amino acids of cellular macromolecules. The solubilized stain was measured spectrophotometrically.

[8] = test system: BXPC-3; assay: Growth inhibition, human cancer cell line BXPC-3 (SRB); type: cell-based; conditions: Pancreas-a, 48 hours
Procedure: as §1

[9] = test system: NCI-H460; assay: Growth inhibition, human cancer cell line NCI-H460 (SRB); type: cell-based; conditions: Lung-NSC, 48 hours
Procedure: as §1

[10] = test system: MCF-7; assay: Growth inhibition, human cancer cell line MCF-7 (SRB); type: cell-based; conditions: 48 hours
Procedure: as §1

[11] = test system: KM20L2; assay: Growth inhibition, human cancer cell line KM20L2 (SRB); type: cell-based; conditions: 48 hours
Procedure: as §1

[12] = test system: DU-145; assay: Growth inhibition, human cancer cell line DU-145 (SRB); type: cell-based; conditions: Prostate, 48 hours
Procedure: as §1

[13] = test system: MHEC; assay: In vivo tumor growth control in scid mice after MHEC inoculation; conditions: female scid mice, single dose ip 400 mg/kg, one week after MHEC inoculation (1×10^6/mouse)
Procedure: Female scid mice were single dose ip administered with CA-4P, and benzo[b]thiophene phosphate prodrug at 400 mg/kg (i.e., MDT of CA-4P) after one week of MHEC inoculation (1×10^6/mouse) (FIG. 20). Studies were carried out through a collaboration with professors Ronald W. Pero and Klaus Edvardsen, University of Lund, Sweden

[14] = test system: SF-268; assay: Growth inhibition, human cancer cell line SF-268 (SRB); type: cell-based; conditions: CNS Gliobl, 48 hours
Procedure: as §1

[15] = test system: P388 leukemia cells; assay: Cytotoxicity assay with P388 leukemia cells; type: cell-based
[16] = test system: OVCAR-3; assay: Growth inhibition, human cancer cell line OVCAR-3 (SRB); type: cell-based; conditions: Ovarian, 48 hours
Procedure: as §1

[17] = test system: FADU; assay: Growth inhibition, human cancer cell line FADU (SRB); type: cell-based; conditions: Pharynx-sqam, 48 hours
Procedure: as §1

[18] = Homo sapiens, MCF7, Breast adn, read-out: GI50
[19] = Homo sapiens, KM-20L2, Colon, read-out: GI50

SMILES: COc1ccc(/C=C\c2cc(OC)c(OC)c(OC)c2)cc1OP(=O)([O-])[O-].[Na+].[Na+] [CSA-4 prodrug]
destruction of tumor vasculature (in words) [1]: very active in terms of tumor vasculature destruction

SMILES: COc1ccc(/C=C\c2cc(OC)c(OC)c(OC)c2)cc1O [Combretastatin A-4]
inhibition of tubulin polymerization (in words) [2]: potent inhibitor of tubulin polymerization | destruction of tumor vasculature (in words) [1]: does not demonstrate destruction of tumor vasculature | water solubility (in words) [3]: poor water solubility

SMILES: COc1ccc2scc(OC)c2c1OC [Compound 1, 3,4,5-trimethoxybenzo[b]thiophene]
inhibition of tubulin polymerization (in words) [4]: inhibition of tubulin polymerization | GI50 [5]: 263 nM | cytotoxicity (in words) [6]: potent cytotoxicity

SMILES: COc1ccc2c(C(=O)c3cc(OC)c(OC)c(OC)c3)c(-c3ccc(OC)c(OP(=O)([O-])[O-])c3)sc2c1.[Na+].[Na+] [Compound 3, 3-(3′,4′,5′-trimethoxybenzoyl)-2-(3′-sodiumphosphate-4′-methoxyphenyl)-6-methoxybenzo[b]thiophene]
pIC50 [4]: 5.40 to 6.00 | GI50 [7]: 0.11 µg/mL | GI50 [8]: 0.35 µg/mL | GI50 [9]: 0.035 µg/mL | GI50 ([10]; Breast adn): 0.028 µg/mL | GI50 ([11]; Colon): 0.22 µg/mL | GI50 [12]: 0.045 µg/mL | tumor growth control (FIG. 20) [13]: remarkable activity in terms of tumor growth control

pIC50 [4]: 5.40 to 6.00 | GI50 ([8]; Homo sapiens, read-out: GI50): 0.13 µg/mL (≈ 0.377 µM) | GI50 ([9]; Homo sapiens, read-out: GI50): 0.16 µg/mL (≈ 0.465 µM) | GI50 [10, 18]: 0.043 µg/mL (≈ 0.125 µM) | GI50 [11, 19]: 0.11 µg/mL (≈ 0.319 µM) | GI50 ([12]; Homo sapiens, read-out: GI50): 0.38 µg/mL (≈ 1.1 µM) | GI50 [14]: 0.67 µg/mL (≈ 1.95 µM)
SMILES: COc1ccc2c(c1)CCCC2(O)c1cc(OC)c(OC)c(OC)c1 (stereo not drawn) [Compound 14A]

SMILES: CCOP(=O)(Nc1c(OC)ccc2c1CCC=C2c1cc(OC)c(OC)c(OC)c1)OCC [Compound 16, 6-methoxy-1-(3′,4′,5′-trimethoxyphenyl)-5-diethylphosphoramidate-3,4-dihydronaphthalene]
pIC50 [4]: < 4.40 | ED50 (effective dosage required to inhibit 50% of cell growth) [15]: 20.4 µg/mL | GI50 ([7]; Homo sapiens, read-out: GI50): 2.2 µg/mL (≈ 4.61 µM) | GI50 ([8]; Homo sapiens, read-out: GI50): 2 µg/mL (≈ 4.19 µM) | GI50 ([9]; Homo sapiens, read-out: GI50): 3.4 µg/mL (≈ 7.12 µM) | GI50 [10, 18]: 3 µg/mL (≈ 6.28 µM) | GI50 [11, 19]: 2.5 µg/mL (≈ 5.24 µM) | GI50 ([12]; Homo sapiens, read-out: GI50): 2.8 µg/mL (≈ 5.86 µM)

SMILES: C#CC=CC#CC(=O)c1cc(OC)c(OC)c(OC)c1 [Compound 30, 1-(3,4,5-trimethoxybenzoyl)-(Z)-3-ene-1,5-hexadiyne]
inhibition of tubulin polymerization (in words) [4]: excellent inhibition of tubulin polymerization | pIC50 [4]: 5.40 to 5.70 | GI50 ([7]; Homo sapiens, read-out: GI50): 1.7 µg/mL (≈ 6.29 µM) | GI50 ([8]; Homo sapiens, read-out: GI50): 1.4 µg/mL (≈ 5.18 µM) | GI50 ([9]; Homo sapiens, read-out: GI50): 1.7 µg/mL (≈ 6.29 µM) | GI50 ([12]; Homo sapiens, read-out: GI50): 0.54 µg/mL (≈ 2 µM) | GI50 [16]: 0.53 µg/mL (≈ 1.96 µM) | GI50 [17]: 0.95 µg/mL (≈ 3.51 µM) | cytotoxicity (in words) [6]: strong cytotoxicity
